Measurements taken from patent publication US20240335544A1, “M6PR CELL SURFACE RECEPTOR BINDING COMPOUNDS AND CONJUGATES” (LYCIA THERAPEUTICS, INC., priority 2021, published 2024).
“Also recorded” adds a separate entry of the source. Like-named read-outs stand apart in the source and are kept apart here.

How the values were obtained:
[1] = tested on: Jurkat cells; test: Conjugate-mediated uptake of IgG2a-Alexa488 into Jurkat cells; type: cell-based; settings: for uptake into Jurkat cells (cell fluorescence vs conjugate concentration): DAR 9-11 per conjugate
Method: (§1) The anti-IgG2a conjugates were bound to IgG2a-Alexa488, as follows: equal molar ratios of anti-IgG2a and IgG2a-Alexa488 were added in tissue culture media for 30 minutes at room temperature. The resulting anti-IgG2a:IgG2a antibody-Alexa488 compositions were added to Jurkat cells (100 k cells/50 ul per well, n=2), and Alexa488 fluorescence levels were measured (via Alexa488 measurement) at 1 hour and 24 hours by flow cytometry. As the fluorescently labelled target (IgG2a antibody) accumulates in cells, the fluorescence presents a way to measure total intracellular uptake by cells over time.

[2] = biological target: T1, CI-M6PR (Homo sapiens, UniProt P11717); test: Human CI-M6PR binding assay (ELISA); set-up: purchased R&D 6418-GR-050
Method: Nunc black solid bottom MaxiSorp plates were allowed to incubate overnight at 4° C. coated with 1 μg/mL of recombinant human CI-M6PR protein (R&D, 6418-GR-050) in 50 μL PBS. The next day, coating was decanted and plates were washed 3× with PBS. Wells were blocked with 350 μL of 3% BSA-PBS for 1 hour at room temperature. […] 50 μL of diluted conjugates were added to the plate and allowed to incubate at room temperature for 2 hours. After incubation, solutions in plate were decanted and washed with 350 μL of 0.05% PBS-Tween20 three times, drying the plate each wash on a clean paper towel. 50 μL of peroxidase AffiniPure Mouse Anti-Human IgG (Jackson Immuno, 209-035-088) diluted in 3% BSA-PBS to […] was added to the plate and allowed to incubate for 1 hour at room temperature in the dark. After incubation, solutions in plate were decanted and washed with 350 μL of 0.05% PBS-Tween20 3 times, drying the plate each wash on a clean paper towel. […] 50 μL of QuantaBlu solution was added to wells and allowed to incubate for 5-10 minutes at room temperature. After incubation, plates were read on a Perkin Elmer EnVision using photometric 340 and Umbelliferone 460 filter sets for excitation and emission, respectively. Data analysis and non-linear curve-fitting was performed using GraphPad Prism.
Target sequence in this assay (P11717 41-1365 limits assumed): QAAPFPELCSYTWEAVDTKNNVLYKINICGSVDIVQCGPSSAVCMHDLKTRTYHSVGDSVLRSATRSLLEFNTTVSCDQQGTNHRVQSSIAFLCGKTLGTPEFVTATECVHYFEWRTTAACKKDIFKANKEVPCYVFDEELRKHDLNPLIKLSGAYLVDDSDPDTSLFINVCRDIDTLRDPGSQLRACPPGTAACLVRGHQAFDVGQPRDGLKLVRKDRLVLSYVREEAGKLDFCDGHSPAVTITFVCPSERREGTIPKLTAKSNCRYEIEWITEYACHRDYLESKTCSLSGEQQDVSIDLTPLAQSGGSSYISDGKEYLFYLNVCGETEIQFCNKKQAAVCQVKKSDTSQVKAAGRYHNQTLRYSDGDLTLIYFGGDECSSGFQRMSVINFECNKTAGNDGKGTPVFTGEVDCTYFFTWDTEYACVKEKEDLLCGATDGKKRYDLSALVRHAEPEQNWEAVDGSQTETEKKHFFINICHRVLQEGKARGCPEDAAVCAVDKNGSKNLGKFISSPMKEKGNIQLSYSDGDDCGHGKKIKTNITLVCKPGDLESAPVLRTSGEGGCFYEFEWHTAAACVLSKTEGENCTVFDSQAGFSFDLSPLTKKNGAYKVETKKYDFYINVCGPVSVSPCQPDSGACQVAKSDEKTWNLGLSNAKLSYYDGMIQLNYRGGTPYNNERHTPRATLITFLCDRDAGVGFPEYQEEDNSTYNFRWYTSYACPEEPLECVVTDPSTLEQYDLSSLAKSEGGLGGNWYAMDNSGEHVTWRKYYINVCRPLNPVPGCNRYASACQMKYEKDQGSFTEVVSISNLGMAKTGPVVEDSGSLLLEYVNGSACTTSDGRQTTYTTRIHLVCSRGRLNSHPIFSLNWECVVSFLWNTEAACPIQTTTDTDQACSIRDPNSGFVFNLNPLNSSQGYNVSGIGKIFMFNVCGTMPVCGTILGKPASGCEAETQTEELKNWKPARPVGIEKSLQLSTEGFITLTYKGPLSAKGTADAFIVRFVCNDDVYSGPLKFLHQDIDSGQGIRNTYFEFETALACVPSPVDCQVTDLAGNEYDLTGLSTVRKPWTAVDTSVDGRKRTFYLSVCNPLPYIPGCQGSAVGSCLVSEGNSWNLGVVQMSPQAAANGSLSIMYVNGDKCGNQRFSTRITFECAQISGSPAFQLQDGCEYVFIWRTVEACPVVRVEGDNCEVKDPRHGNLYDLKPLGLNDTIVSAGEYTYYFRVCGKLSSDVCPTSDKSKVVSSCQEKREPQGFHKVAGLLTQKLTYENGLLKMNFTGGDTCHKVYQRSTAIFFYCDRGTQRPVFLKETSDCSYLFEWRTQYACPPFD

[3] = tested on: Hep G2 cells; test: Conjugate-mediated uptake of IgG2a into Hep G2 cells; type: cell-based, human; settings: one hour incubation, FIG. 13; 816 DAR6, 817 DAR4, 520 (I-7) DAR4
Method: as §1
The uptake of antibody conjugates of exemplary M6PR or ASGPR binding compounds was assessed in Hep G2 cells, using a method similar to that described in Example above. […] Compounds 816 and 817 were prepared according to methods described in International Application No. PCT/US2021/012846, filed Jan. 8, 2021.

[4] = tested on: wild type (WT) K562 cells; test: CI-M6PR mediated uptake of Alexa488-IgE in wild type K562 cells; type: cell-based; settings: omalizumab conjugates, average loading DAR9, FIG. 14
Method: The uptake of exemplary omalizumab (anti-IgE) antibody conjugates of compound 520 (I-7) (average loading DAR9) versus exemplary compound 537 (I-66) (average loading DAR9) was assessed in wild type (WT) K562 cells and CI-M6PR knockout (KO) cells using a similar method of that described above.

[5] = tested on: Jurkat cells; test: Uptake of IgE-Alexa488 target by omalizumab conjugates in Jurkat cells; type: cell-based
Method: The omalizumab conjugates of Example 142 were bound to IgE-Alexa488 (prepared according to Example 144), as follows: equal molar ratios of omalizumab (anti-IgE) conjugate and IgE-Alexa488 were added in tissue culture media for 30 minutes at room temperature. The resulting anti-IgE conjugate:IgE antibody-Alexa488 compositions were added to Jurkat cells (100 k cells/50 ul per well, n=2), and Alexa488 fluorescence levels in the cells were measured at 1 hour by flow cytometry. As the fluorescently labelled target (IgE antibody) accumulates in cells, the fluorescence presents a way to measure total intracellular uptake by cells over time.

[6] = biological target: T1, CI-M6PR; test: CI-M6PR SPR binding assay; settings: omalizumab conjugates at DAR of about 4
Method: The CI-M6PR binding affinities of omalizumab (anti-IgE) conjugates of Table 19 were also assessed via SPR binding assay. […] At equivalent DAR (m) values, the koff rate of the omalizumab (anti-IgE) conjugates was 552>529>570.
Target sequence in this assay (P11717 41-2491): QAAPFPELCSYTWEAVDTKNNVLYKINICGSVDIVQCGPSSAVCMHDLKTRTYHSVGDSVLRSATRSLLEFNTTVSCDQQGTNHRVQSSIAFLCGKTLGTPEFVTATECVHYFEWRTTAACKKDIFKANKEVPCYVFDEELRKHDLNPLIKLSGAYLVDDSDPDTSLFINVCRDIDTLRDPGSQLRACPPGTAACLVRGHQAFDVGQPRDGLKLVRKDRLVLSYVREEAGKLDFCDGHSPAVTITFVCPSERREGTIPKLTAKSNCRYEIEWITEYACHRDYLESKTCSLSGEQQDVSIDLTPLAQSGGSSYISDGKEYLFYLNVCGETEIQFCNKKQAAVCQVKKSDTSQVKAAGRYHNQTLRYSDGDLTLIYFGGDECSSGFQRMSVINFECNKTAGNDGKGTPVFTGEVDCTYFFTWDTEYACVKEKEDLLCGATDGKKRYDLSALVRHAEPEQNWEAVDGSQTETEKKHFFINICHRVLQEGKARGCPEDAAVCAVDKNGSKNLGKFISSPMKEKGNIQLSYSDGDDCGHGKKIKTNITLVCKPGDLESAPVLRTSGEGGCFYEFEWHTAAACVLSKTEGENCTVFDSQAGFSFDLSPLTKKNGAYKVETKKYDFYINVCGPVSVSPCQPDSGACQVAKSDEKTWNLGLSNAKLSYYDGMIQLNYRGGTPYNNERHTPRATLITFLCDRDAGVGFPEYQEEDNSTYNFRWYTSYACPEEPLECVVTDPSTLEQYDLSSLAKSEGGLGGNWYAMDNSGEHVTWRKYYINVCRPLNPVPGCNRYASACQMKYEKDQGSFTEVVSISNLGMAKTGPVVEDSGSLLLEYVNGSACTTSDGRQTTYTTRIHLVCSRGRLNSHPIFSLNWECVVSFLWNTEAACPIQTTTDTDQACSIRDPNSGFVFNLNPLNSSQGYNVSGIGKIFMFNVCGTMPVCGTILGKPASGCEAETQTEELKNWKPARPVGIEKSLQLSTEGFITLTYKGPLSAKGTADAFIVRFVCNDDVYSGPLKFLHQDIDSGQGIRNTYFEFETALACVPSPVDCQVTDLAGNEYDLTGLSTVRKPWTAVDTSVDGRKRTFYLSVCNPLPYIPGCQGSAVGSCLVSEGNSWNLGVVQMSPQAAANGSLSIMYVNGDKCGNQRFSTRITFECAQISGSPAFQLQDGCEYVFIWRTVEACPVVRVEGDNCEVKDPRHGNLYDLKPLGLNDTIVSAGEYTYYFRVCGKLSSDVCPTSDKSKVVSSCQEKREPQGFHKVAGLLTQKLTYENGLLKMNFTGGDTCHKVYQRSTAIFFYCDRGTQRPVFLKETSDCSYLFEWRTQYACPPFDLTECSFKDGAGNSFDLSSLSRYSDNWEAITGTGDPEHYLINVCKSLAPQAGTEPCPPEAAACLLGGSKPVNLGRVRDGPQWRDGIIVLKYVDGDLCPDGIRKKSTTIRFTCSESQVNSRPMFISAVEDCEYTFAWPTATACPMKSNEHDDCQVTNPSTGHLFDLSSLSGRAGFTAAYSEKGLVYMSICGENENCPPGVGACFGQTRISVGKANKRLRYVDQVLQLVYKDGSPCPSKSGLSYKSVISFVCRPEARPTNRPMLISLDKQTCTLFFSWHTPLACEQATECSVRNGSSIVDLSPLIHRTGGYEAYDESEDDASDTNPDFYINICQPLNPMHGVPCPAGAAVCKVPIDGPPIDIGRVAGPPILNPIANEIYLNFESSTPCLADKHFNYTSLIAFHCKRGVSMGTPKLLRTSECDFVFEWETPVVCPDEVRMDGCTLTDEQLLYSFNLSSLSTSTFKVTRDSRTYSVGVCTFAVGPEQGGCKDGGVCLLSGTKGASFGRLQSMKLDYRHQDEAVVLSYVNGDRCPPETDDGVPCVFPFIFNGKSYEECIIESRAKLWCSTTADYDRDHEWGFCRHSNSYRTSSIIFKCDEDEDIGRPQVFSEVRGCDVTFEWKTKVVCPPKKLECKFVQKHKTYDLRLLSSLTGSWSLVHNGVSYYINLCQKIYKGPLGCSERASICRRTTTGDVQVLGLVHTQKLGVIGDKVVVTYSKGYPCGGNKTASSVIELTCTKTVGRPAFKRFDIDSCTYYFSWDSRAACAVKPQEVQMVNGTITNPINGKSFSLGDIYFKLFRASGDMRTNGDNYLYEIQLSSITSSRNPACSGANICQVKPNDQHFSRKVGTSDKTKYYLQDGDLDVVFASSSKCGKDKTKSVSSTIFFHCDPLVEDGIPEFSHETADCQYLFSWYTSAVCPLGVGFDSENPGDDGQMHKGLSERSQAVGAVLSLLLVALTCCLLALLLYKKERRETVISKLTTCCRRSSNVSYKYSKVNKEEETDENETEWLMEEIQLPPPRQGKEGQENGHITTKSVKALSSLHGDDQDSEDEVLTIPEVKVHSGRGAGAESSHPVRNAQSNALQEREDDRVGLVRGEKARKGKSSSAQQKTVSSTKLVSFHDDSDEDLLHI

[7] = Serum pharmacokinetic analysis of rIgG1 (anti-IgG2a) antibody conjugates; type: in vivo, mice; settings: intravenous 10 μg/mouse, serum 0.5-24 h, compared to Compound I-7 conjugate
Method: A pharmacokinetic analysis of the rIgG1 (anti-IgG2a) antibody conjugates described in the previous example was performed in mice. In particular, […] mice were intravenously administered each rIgG1 antibody conjugate at 10 μg/mouse (5 mice per group). Blood was collected at 0.5, 1, 2, 6, and 24 hours and serum rIgG1 was analyzed using an ELISA kit (Abcam) according to the manufacturer's instructions. Samples were run across 3 different plates with unconjugated rIgG1 controls (UNLB-anti-IgG2a rIgG1) included on all 3 plates. FIGS. 8A-8C show the serum levels of anti-IgG2a conjugated to Compound I-7 (dar8) and (dar4) (FIG. 8A), anti-IgG2a conjugated to Compound I-10 and anti-IgG2a conjugated to Compound I-11 (FIG. 8B), and anti-IgG2a conjugated to Compound I-9 and anti-IgG2a conjugated to Compound I-12 (FIG. 8C) over time.

[8] = biological target: T2, M6PR (Domains I-9, R&D Systems) (Homo sapiens, UniProt P11717); test: General M6PR binding assay (fluorescence polarization); settings: Table 16F, unconjugated compounds, 100 nM M6PR, 1 nM probe, 2 hr incubation
T2 construct: with 100 nM M6PR (Domains I-9, R&D Systems) and 1 nM probe; purchased R&D Systems
T2 sequence (P11717 41-1365 limits assumed): as the sequence (P11717 41-1365 limits assumed) above
Method: M6PR binding was measured in black 96-well plates using a fluorescence polarization assay. A fluorescent probe consisting of a reference M6Pn ligand linked to Cy5 was synthesized. Test compounds were resuspended in DMSO and 3-fold serial dilutions were made at 100× final concentrations. Binding reactions were conducted in 100 μl final volume in 20 mM HEPES (pH 7.5) 100 mM NaCl 0.015% Tween-20 1% DMSO with 100 nM M6PR (Domains I-9, R&D Systems) and 1 nM probe. Fluorescence polarization was measured using Xex=620 nm, λem=688 nm on an Envision plate reader (Perkin Elmer) after 2 hr incubation time. Dose responses were conducted in duplicate and normalized to the response with DMSO (high) and 1 μM reference compound (low) on each plate. IC50 values were determined by fitting to 4-parameter curves in GraphPad Prism.

[9] = antibody conjugate, average loading DAR 9, read-out: EC50 (nM) in M6PR binding assay
[10] = Table 16E, conjugate, m average DAR 9.5, read-out: EC50 in M6PR binding assay for conjugates of monovalent compounds of varying linker length and loading
[11] = antibody conjugate, average loading DAR 9.5, read-out: EC50 (nM) in M6PR binding assay

O=C(CCCCCc1cn(CCOCCOCCOCCOCCC(=O)Oc2c(F)c(F)c(F)c(F)c2F)nn1)Nc1ccc(O[C@H]2O[C@H](CCP(=O)(O)O)[C@@H](O)[C@H](O)[C@@H]2O)cc1 [513 (I-39)]
uptake into Jurkat cells (cell fluorescence vs conjugate concentration) ([1]; one hour incubation, FIG. 12): strong cell uptake | EC50 [2, 9]: 0.19 nM

O=C(CCOCCOCCOCCOCCn1cc(CCCCNC(=S)Nc2ccc(O[C@H]3O[C@H](CCP(=O)(O)O)[C@@H](O)[C@H](O)[C@@H]3O)cc2)nn1)Oc1c(F)c(F)c(F)c(F)c1F [520 (I-7)]
uptake into HepG2 cells [3]: comparable HepG2 cellular uptake | cell uptake of Alexa488-IgE target, WT K562 versus CI-M6PR KO cells [4]: CI-M6PR dependent | EC50 ([2]; Table 16B, antibody conjugate, average loading DAR 4, read-out: EC50 in M6PR binding assay): 0.41 nM | EC50 ([2]; Table 16C, cetuximab (anti-EGFR) conjugate, average loading DAR 8, read-out: EC50 in M6PR binding assay): 0.41 nM | EC50 ([2]; Table 16D, conjugate, m average loading DAR 2, read-out: EC50 in M6PR binding assay for conjugates of compounds of varying multivalency): 3.71 nM | EC50 ([2]; Table 16D, conjugate, m average loading DAR 4, read-out: EC50 in M6PR binding assay for conjugates of compounds of varying multivalency): 0.3 nM | EC50 ([2]; Table 16D, conjugate, m average loading DAR 9, read-out: EC50 in M6PR binding assay for conjugates of compounds of varying multivalency): 0.23 nM | EC50 ([2]; Table 16E, conjugate, m average DAR 2, read-out: EC50 in M6PR binding assay for conjugates of monovalent compounds of varying linker length and loading): 3.71 nM | EC50 ([2]; Table 16E, conjugate, m average DAR 4, read-out: EC50 in M6PR binding assay for conjugates of monovalent compounds of varying linker length and loading): 0.3 nM | EC50 ([2]; Table 16E, conjugate, m average DAR 9, read-out: EC50 in M6PR binding assay for conjugates of monovalent compounds of varying linker length and loading): 0.23 nM | EC50 ([2]; antibody conjugate, average loading DAR 2, read-out: EC50 (nM) in M6PR binding assay): 2.6 nM | EC50 ([2]; antibody conjugate, average loading DAR 4, read-out: EC50 (nM) in M6PR binding assay): 0.22 nM | EC50 [2, 9]: 0.22 nM | binding affinity to M6PR, rank among conjugates tested (FIGS. 7A-7F) ([2]; matuzumab conjugates, I-7 at d8 (DAR 8), I-11 at d4 (DAR 4)): highest

C[C@H](NC(=O)CCCn1cc(CCCCNC(=S)Nc2ccc(O[C@H]3O[C@H](CCP(=O)(O)O)[C@@H](O)[C@H](O)[C@@H]3O)cc2)nn1)C(=O)N[C@@H](C)C(=O)N[C@@H](C)C(=O)NCCOCCOCCOCCOCCC(=O)Oc1c(F)c(F)c(F)c(F)c1F [528 (I-51)]
uptake into Jurkat cells, average loading DAR9 versus DAR2 ([1]; one hour incubation, FIG. 12): greater uptake | uptake into Jurkat cells (cell fluorescence vs conjugate concentration) ([1]; one hour incubation, FIG. 12): strong cell uptake | EC50 ([2]; EC50 in M6PR binding assay for conjugates of compounds of varying multivalency, Table 16D, conjugate, m average loading DAR 2): 2.23 nM | EC50 ([2]; EC50 in M6PR binding assay for conjugates of monovalent compounds of varying linker length and loading, Table 16E, conjugate, m average DAR 2): 2.23 nM | EC50 ([2]; Table 16B, antibody conjugate, average loading DAR 8, read-out: EC50 in M6PR binding assay): 0.3 nM | EC50 ([2]; Table 16D, conjugate, m average loading DAR 9.5, read-out: EC50 in M6PR binding assay for conjugates of compounds of varying multivalency): 0.2 nM | EC50 [2, 10]: 0.2 nM | EC50 [2, 11]: 0.2 nM

O=C(NCCCCc1cn(CCOCCOCCOCCOCCC(=O)Oc2c(F)c(F)c(F)c(F)c2F)nn1)Nc1ccc(O[C@H]2O[C@H](CCP(=O)(O)O)[C@@H](O)[C@H](O)[C@@H]2O)cc1 [529 (I-38)]
uptake into Jurkat cells (cell fluorescence vs conjugate concentration) ([1]; one hour incubation, FIG. 12): strong cell uptake | relative cellular uptake activity of IgE-Alexa488, omalizumab conjugates of Table 15A ([5]; 1 hour, FIGS. 15-17): comparable activity to a thiourea Z^3 analog (520 (I-7) with m=4) | EC50 [2, 10]: 0.19 nM | EC50 [2, 11]: 0.19 nM

O=C(NCCCCc1cn(CCOCCOCCOCCOCCC(=O)Oc2c(F)c(F)c(F)c(F)c2F)nn1)Nc1ccc(S[C@@H]2O[C@H](CCP(=O)(O)O)[C@@H](O)[C@H](O)[C@@H]2O)cc1 [Compound 570]
relative cellular uptake activity of IgE-Alexa488, omalizumab conjugates of Table 15B ([5]; 1 hour, FIGS. 18-21): superior activity to conjugates having a α-S-glycoside configuration (552), and to a conjugate having an α-O-glycoside configuration (520 (I-7), m=8) | relative cellular uptake activity of IgE-Alexa488, omalizumab conjugates of Table 19 ([5]; FIG. 23, entire dose response range): superior activity to the corresponding conjugates of α-O-glycoside (529) and α-S-glycoside (552) | Kd (CI-M6PR binding affinity by SPR), relative [6]: superior Kd relative to corresponding α-O (529) and α-S-glycosides (552)

O=C(CCN1C(=O)C=CC1=O)NCCOCCOCCOCCn1cc(CCO[C@H]2O[C@H](CCP(=O)(O)O)[C@@H](O)[C@H](O)[C@@H]2O)nn1 [Compound I-10]
half-life in mice [7]: longer half-life | intracellular uptake of IgG2a-Alexa488 into Jurkat cells ([1]; anti-IgG2a conjugates, 1 h and 24 h (FIGS. 9-10)): sufficiently robust uptake | binding affinity to M6PR compared to Compound I-7 ([2]; conjugates of ligand linkers): weaker binding affinity to M6PR compared to Compound I-7; also recorded: weaker binding affinity to M6PR than Compound I-7

C#CCCCCCOC[C@H]1O[C@H](OC)[C@@H](O[C@H]2O[C@H](CCP(=O)(O)O)[C@@H](O)[C@H](O)[C@@H]2O)[C@@H](O)[C@@H]1O [Compound I-108, (2-((2R,3S,4S,5S,6R)-6-(((2S,3S,4S,5S,6R)-6-((hept-6-yn-1-yloxy)methyl)-4,5-dihydroxy-2-methoxytetrahydro-2H-pyran-3-yl)oxy)-3,4,5-trihydroxytetrahydro-2H-pyran-2-yl)ethyl)phosphonic acid]
IC50 [8]: ≥ 500 nM

O=C(NCCCCc1cn(-c2cccnc2)nn1)Nc1ccc(C[C@H]2O[C@H](CCP(=O)(O)O)[C@@H](O)[C@H](O)[C@@H]2O)cc1 [Compound P5]
IC50 [8]: 100 to 500 nM
